ChEMBL document CHEMBL3887000, “Inhibitors of the renal outer medullary potassium channel” (2016)

What was measured:
[1] = biological target: T1, ATP-sensitive inward rectifier potassium channel 1 (Homo sapiens, UniProt P48048); experiment: Thallium Flux Assay: The ROMK channel functional thallium flux assay is performed in 384 wells, using the FLIPR-Tetra instrument. HEK-hKir1.1 cells are seeded in Poly-D-Lysine microplates and kept in a 37° C.-10% CO2 incubator overnight. On the day of the experiment, the growth media is replaced with the FluxOR reagent loading buffer and incubated, protected from light, at ambient temperature (23-25° C.) for 90 min. The loading buffer is replaced with assay buffer test compound followed by 30 min incubation at ambient temperature, where the Thallium/Potassium stimulant is added to the microplate. Step Protocol 1. Seed HEK-hKir1.1 cells (50 ul at 20,000 cells/well) in 384-well PDL coated Microplates 2. Allow cells to adhere overnight in humidified 37° C./10% CO2 incubator 3. Completely remove cell growth media from microplate and replace with 25 ul loading buffer 4. Incubate Microplate at room temperature, protected form light, for 90 min 5. Remove loading buffer and replace with 25 ul 1x Assay Buffer±test compound.Â 6. Incubate microplate at room temperature, protected form light, for 30 min 7. At FLIPR-Tetra 384: Add stimulant (Thallium/Potassium) solution to microplate and monitor fluorescence. Excitation=400 nm, Emission=460 & 580 nm. Collect data for 10 min.Â Data Calculation: The fluorescence intensity of wells containing 3 uM of a standard control ROMK inhibitor of the present invention is used to define the ROMK-sensitive component of thallium flux. Fluorescence in the presence of test compounds is normalized to control values to provide % fluorescence change.
T1 sequence (P48048 whole entry): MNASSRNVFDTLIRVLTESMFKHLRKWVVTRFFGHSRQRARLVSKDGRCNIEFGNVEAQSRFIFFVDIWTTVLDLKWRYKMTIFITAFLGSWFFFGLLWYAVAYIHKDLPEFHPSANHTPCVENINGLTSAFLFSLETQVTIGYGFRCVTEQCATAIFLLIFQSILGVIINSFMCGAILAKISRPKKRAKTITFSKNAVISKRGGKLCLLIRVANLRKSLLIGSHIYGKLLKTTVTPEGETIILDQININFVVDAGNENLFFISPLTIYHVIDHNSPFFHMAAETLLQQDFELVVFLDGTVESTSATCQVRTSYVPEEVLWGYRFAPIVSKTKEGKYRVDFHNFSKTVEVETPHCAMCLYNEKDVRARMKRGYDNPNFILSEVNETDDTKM

[2] = biological target: T1, ATP-sensitive inward rectifier potassium channel 1; experiment: Electrophysiology Assay: Block of Kir1.1 (ROMK1) currents was examined by whole cell voltage clamp (Hamill et. al. Pfluegers Archives 391:85-100 (1981)) using the IonWorks Quattro automated electrophysiology platform (Molecular Devices, Sunnyvale, Calif.). Chinese hamster ovary cells stably expressing Kir1.1 channels were maintained in T-75 flasks in cell culture media in a humidified 10% CO2 incubator at 37° C. Prior to an experiment, Kir1.1 expression was induced by overnight incubation with 1 mM sodium butyrate. On the day of the experiment, cells were dissociated with 2.5 ml of Versene (Invitrogen 15040-066) for approximately 6 minutes at 37° C. and suspended in 10 ml of bath solution containing (in mM): 150 NaCl, 10 KCl, 2.7 CaCl2, 0.5 MgCl2, 5 HEPES, pH 7.4. After centrifugation, the cell pellet was resuspended in approximately 4.0 ml of bath solution and placed in the IonWorks instrument. The intracellular solution consisted of (in mM): 80 K gluconate, 40 KCl, 20 KF, 3.2 MgCl2, 3 EGTA, 5 Hepes, pH 7.4. Electrical access to the cytoplasm was achieved by perforation in 0.13 mg/ml amphotericin B for 4 minutes. Amphotericin B (Sigma A-4888) was prepared as a 40 mg/ml solution in DMSO.; format: cell-based

| SMILES | IC50 [1] | IC50 [2] |
| --- | --- | --- |
| Cc1c([C@@H](O)CN2CCC3(CCCN3C[C@H](O)c3ccc4c(c3C)COC4=O)C2)ccc2c1COC2=O (stereo partly specified) | 91 nM | 11 nM |
| Cc1c([C@@H](O)CN2CCC3(CC2)CCN(C[C@H](O)c2ccc4c(c2C)COC4=O)C3)ccc2c1COC2=O | 1210 nM | – |
| Cc1c([C@@H](O)CN2C(C)CC3CN(CC(O)c4ccc(C#N)cn4)CC32)ccc2c1COC2=O (single isomer, unassigned) | – | 39 nM |
| Cc1c([C@@H](O)CN2CCC3CN(S(=O)(=O)c4ccc(C#N)cc4)CC32)ccc2c1COC2=O (single isomer, unassigned) | 402 nM | 62 nM |
